Test results taken from patent US6410566B1, “Cyclic amine derivatives and their use as drugs” (Teijin Limited, priority 2000, dated 2002).

target: T1, binding of human MCP-1 to THP-1 cells (Homo sapiens, UniProt P41597); test: Inhibition of binding of [125I]-labeled baculovirus expressed human MCP-1 to THP-1 cells (Method 2); settings: Method 2, at 1 μM
T1 construct: endogenous in cells; host or cells: THP-1 (human monocytic leukemia cell line), whole cells
T1 sequence (P41597 1-360 isoform P41597-2): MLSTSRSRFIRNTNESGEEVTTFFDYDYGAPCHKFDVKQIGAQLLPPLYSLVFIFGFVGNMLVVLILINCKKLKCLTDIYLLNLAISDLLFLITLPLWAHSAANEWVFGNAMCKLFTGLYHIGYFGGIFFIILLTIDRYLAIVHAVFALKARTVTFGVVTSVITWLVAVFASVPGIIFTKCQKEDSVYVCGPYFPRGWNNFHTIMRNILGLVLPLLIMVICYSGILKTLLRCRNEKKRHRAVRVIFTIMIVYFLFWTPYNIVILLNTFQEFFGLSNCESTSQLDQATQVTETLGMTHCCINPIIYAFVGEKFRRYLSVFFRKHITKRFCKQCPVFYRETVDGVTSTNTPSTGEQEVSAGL
Excerpt: 1. Construction of recombinant baculovirus carrying the human MCP-1 gene
Based on the previously published human MCP-1 gene sequence (for example T. Yoshirnura et al., FEBS Lett., 1989, 244, 487-493), two synthetic DNA primers (5′-[…]-3′ and 5′-[…]-3′) flanked by restriction enzyme sites were used to amplify a DNA fragment from cDNA derived from human endothelial cells (purchased from Kurabow Co.); the amplified fragment was cut with the restriction enzymes (PstI and XbaI), ligated into a transfer vector pVL1393 (Invitrogen Co.), and the resulting vector was co-transfected along with infectious baculovirus into Sf-9 insect cells and the supernatant was plaque assayed to yield human MCP-1 gene baculovirus recombinant.
2. Synthesis of [^125I]-labeled human MCP-1 expressed in baculovirus
Using the method of K. Ishii et al. (Biochem Biophys Research Communications, 1995, 206, 955-961), 5×10^6 Sf-6 insect cells was infected with 5×10^7 PFU (plaque forming units) of the above human MCP-1 recombinant baculovirus and cultured for 7 days in Ex-Cell 401 medium. The culture supernatant was affinity purified using a heparin Sepharose column (Pharmacia Co.) and then further purified using reverse phase HPLC (Vydac C18 column) to prepare purified human MCP-1. The purified human MCP-1 was protein labeled by Amersham Co. using the Bolton Hunter method to yield [^125I]-labeled baculovirus expressed human MCP-1 (specific activity 2000 Ci/mmol).
3-2. Measurement of inhibition of binding of [^125I]-labeled baculovirus expressed human MCP-1 to THP-1 cells (Method 2)
Human monocytic leukemia cell line THP-1 was suspended in assay buffer (50 mM HEPES, pH 7.4, 1.0 mM CaCl2, 5.0% mM MgCl2, 0.5% BSA) to give a cell suspension of a concentration of 1×10^7 cells/mL. The test compound was diluted in the assay buffer and used as the test compound solution. [^125I]-labeled human MCP-1 described above was diluted in assay buffer to 1 mCi/mL and used as the labeled ligand solution. In a 96 well filter plate (Millipore Co.), 25 μL of test compound solution, 25 μL of labeled ligand solution and 50 μL of cell suspension were aliquoted into each well in this order, stirred (total reaction volume 100 μL), and incubated for one hour at 18° C.
After the reaction, the reaction solution was filtered, and the filter was washed twice with 200 μL of cold PBS (200 μL of cold PBS was added and then filtered). The filter was air-dried and 25 μL of liquid scintillator was added into each well. The radioactivity retained by the cells on the filter were measured using TopCount (Packard Instrument Co.).
To calculate the ability of test compound to inhibit binding of human MCP-1 to THP-1 cells, non-specific binding determined by adding 100 ng of unlabeled human MCP-1 in place of the test compound was subtracted, while the counts with no test compound added was taken as 100%.
Inhibition (%)={1−(A−B)/(C−B)}×100
(A, counts with test compound added; B, counts with 100 ng of unlabeled human MCP-1 added; C, counts with [^125I]-labeled human MCP-1 added).

Structure (SMILES)	inhibition at 1 µM [%]
Nc1cc(F)c(F)cc1C(=O)NCC(=O)NCC1CCN(Cc2ccc(Cl)cc2)C1 (stereo not drawn) [Compound No. 1506, 3-[{N-(2-Amino-4,5-difluorobenzoyl)glycyl}aminomethyl]-1-(4-chlorobenzyl)pyrrolidine]	50 to 80
CCOc1ccc(CN2CCC(CNC(=O)CNC(=O)c3cc(Cl)ccc3N)CC2)cc1 [Compound No. 1429, 4-[{-(2-Amino-5-chlorobenzoyl)glycyl}aminomethyl]-1-(4-ethoxybenzyl)piperidine]	20 to 50
O=C(CNC(=O)c1cccc(C(F)(F)F)c1)NCC1CCN(Cc2ccc(Cl)cc2)C1 (stereo not drawn) [Compound No. 1463, 3-[{N-(3-Trifluoromethylbenzoyl)glycyl}aminomethyl]-1-(4-chlorobenzyl)pyrrolidine]	20 to 50
Cc1ccc(C(=O)NCC(=O)N[C@@H]2CCN(Cc3ccc(Cl)cc3)C2)cc1Br [Compound No. 1098, (R)-1-(4-Chlorobenzyl)-3-[{N-(3-bromo-4-methylbenzoyl)glycyl}amino]pyrrolidine]	20 to 50

Further lines, results first:

inhibition at 1 µM [%]	Structure (SMILES)
20 to 50	CS(=O)(=O)N(c1ccc(Br)cc1C(=O)NCC(=O)NCC1CCN(Cc2ccc(Cl)cc2)CC1)S(C)(=O)=O [Compound No. 1582, 4-[{N-(5-Bromo-2-(bis(methylsulfonyl)amino)benzoyl)glycyl}aminomethyl]-1-(4-chlorobenzyl)piperidine]
50 to 80	Nc1ccc(OC(F)(F)F)cc1C(=O)NCC(=O)N[C@@H]1CCN(Cc2ccc(Cl)cc2Cl)C1 [Compound No. 1905, (R)-3-[{N-(2-Amino-5-(trifluoromethoxy)benzoyl)glycyl}amino]-1-(2,4-dichlorobenzyl)pyrrolidine]
> 80	Nc1cc2c(cc1CN1CC[C@@H](NC(=O)CNC(=O)c3cc(C(F)(F)F)ccc3N)C1)OCO2 [Compound No. 2127, (R)-1-(2-Amino-4,5-methylenedioxybenzyl)-3-[{N-(2-amino-5-trifluoromethylbenzoyl)glycyl}amino]pyrrolidine]
> 80	Nc1cc(CN2CC[C@@H](NC(=O)CNC(=O)c3cc(C(F)(F)F)ccc3N)C2)ccc1O [Compound No. 2187, (R)-1-(3-Amino-4-hydroxybenzyl)3-[{N-(2Amino-5-trifluoromethylbenzoyl)glycyl}amino]pyrrolidine]
20 to 50	CS(=O)(=O)Nc1ccc(Br)cc1C(=O)NCC(=O)NCC1CCN(Cc2ccc(Cl)cc2)CC1 [Compound No. 1581, 4-[{N-(5-Bromo-2-(methylsulfonylamino)benzoyl)glycyl}aminomethyl]-1-(4-chlorobenzyl)piperidine]
50 to 80	CC(C)c1ccc(CN2CCC(CNC(=O)CNC(=O)c3cc(OC(F)(F)F)ccc3N)CC2)cc1 [Compound No. 1903, 4-[{N-(2-Amino-5-trifluoromethoxybenzoyl)glycyl}aminomethyl]-1-(4-isopropylbenzyl)piperidine]
> 80	CN(C)c1cc(CN2CC[C@@H](NC(=O)CNC(=O)c3cc(C(F)(F)F)ccc3N)C2)ccc1Cl [Compound No. 2133, (R)-3-[{N-(2-Amino-5-trifluoromethylbenzoyl)glycyl}amino]-1-{4-chloro-3-(dimethylamino)benzyl}pyrrolidine]
20 to 50	Nc1ccc(Cl)cc1C(=O)NCC(=O)NCC1CCN(Cc2ccc(SC(F)(F)F)cc2)CC1 [Compound No. 1616, 4-[{N-(2-Amino-5-chlorobenzoyl)glycyl}aminomethyl]-1-{4-(trifluoromethylthio)benzyl}piperidine]
20 to 50	CCOc1ccc(CN2CCC(CNC(=O)CNC(=O)c3cc(F)c(F)cc3N)CC2)cc1OCC [Compound No. 2065, 4-[{N-(2-amino-4,5-difluorobenzoyl)glycyl}aminomethyl]-1-(3,4-diethoxybenzyl)piperidine]
> 80	COc1ccc(CN2CCC(CNC(=O)CNC(=O)c3cc(F)c(F)cc3N)CC2)cc1N [Compound No. 2113, 4-[{N-(2-amino-4,5-difluorobenzoyl)glycyl}aminomethyl]-1-(3-amino-4-methoxybenzyl)piperidine]
50 to 80	Nc1ccc(OC(F)(F)F)cc1C(=O)NCC(=O)NCC1CCN(Cc2ccc(Br)cc2)CC1 [Compound No. 1910, 4-[{N-(2-Amino-5-trifluoromethoxybenzoyl)glycyl}aminomethyl]-1-(4-bromobenzyl)piperidine]
> 80	Nc1ccc(C(F)(F)F)cc1C(=O)NCC(=O)N[C@@H]1CCN(Cc2ccc(Br)cc2F)C1 [Compound No. 2120, (R)-3-[{N-(2-Amino-5-trifluoromethylbenzoyl)glycyl}amino]-1-(4-bromo-2-fluorobenzyl)pyrrolidine]

target: T1, binding of human MCP-1 to THP-1 cells; test: Inhibition of binding of [125I]-labeled baculovirus expressed human MCP-1 to THP-1 cells (Method 1); settings: Method 1, at 10 μM
Excerpt: Measurement of Inhibition of MCP-1 Binding to THP-1 Cells 1. Construction of recombinant baculovirus carrying the human MCP-1 gene Based on the previously published human MCP-1 gene sequence (for example T. Yoshirnura et al., FEBS Lett., 1989, 244, 487-493), two synthetic DNA primers ([NT] and [NT]) flanked by restriction enzyme sites were used to amplify a DNA fragment from cDNA derived from human endothelial cells (purchased from Kurabow Co.); the amplified fragment was cut with the restriction enzymes (PstI and XbaI), ligated into a transfer vector pVL1393 (Invitrogen Co.), and the resulting vector was co-transfected along with infectious baculovirus into Sf-9 insect cells and the supernatant was plaque assayed to yield human MCP-1 gene baculovirus recombinant. […] Using the method of K. Ishii et al. […] The culture supernatant was affinity purified using a heparin Sepharose column (Pharmacia Co.) and then further purified using reverse phase HPLC (Vydac C18 column) to prepare purified human MCP-1. […] 3-1. […] The test. compound was diluted in the assay buffer and used as the test compound solution. [^125I]-labeled human MCP-1 described above was diluted in assay buffer to 1 mCi/mL and used as the labeled ligand solution. In a 96 well filter plate (Millipore Co.), 25 μL of test compound solution, 25 μL of labeled ligand solution and 50 μL of cell suspension were aliquoted into each well in this order, stirred (total reaction volume 100 μL), and incubated for one hour at 18° C. After the reaction, the reaction solution was filtered, and the filter was washed twice with 200 μL of cold PBS (200 μL of cold PBS was added and then filtered). The filter was air-dried and 25 μL of liquid sciatillator was added into each well. The radioactivity retained by the cells on the filter were measured using TopCount (Packard Instrument Co.). To calculate the ability of test compound to inhibit binding of human MCP-1 to THP-1 cells, non-specific binding determined by adding 100 ng of unlabeled human MCP-1 in place of the test compound was subtracted, while the counts with no test compound added was taken as 100%. Inhibition (%)=(1-(A-B)/(C-B))×100 (A, counts with test compound added; B, counts with 100 ng of unlabeled human MCP-1 added; C, counts with [^125I]-labeled human MCP-1 added).

inhibition at 10 µM [%]	Structure (SMILES)
50 to 80	CN(C)c1ccc(CN2CCC(CNC(=O)CNC(=O)c3cccc(C(F)(F)F)c3)CC2)cc1 [Compound No. 937, 1-{4-(Dimethylamino)benzyl}-4-[{N-(3-(trifluoromethyl)benzoyl)glycyl}aminomethyl]piperidine]
20 to 50	NC(=O)c1ccc(CN2CCC(CNC(=O)CNC(=O)c3cccc(C(F)(F)F)c3)CC2)cc1 [Compound No. 925, 1-(4-Carbamoylbenzyl)-4-[{N-(3-(trifluoromethyl)benzoyl)glycyl}aminomethyl]piperidine]
20 to 50	Nc1ccc(CN2CCC(CNC(=O)CNC(=O)c3cccc(C(F)(F)F)c3)CC2)cc1 [Compound No. 516, 1-(4-Aminobenzyl)-4-[{N-(3-(trifluoromethyl)benzoyl)glycyl}aminomethyl]piperidine]
20 to 50	O=C(CNC(=O)c1cccc(C(F)(F)F)c1)NCC1CCN(Cc2ccc(NC(=O)c3ccccc3)cc2)CC1 [Compound No. 519, 1-{4-(Benzoylamino)benzyl}-4-[{N-(3-(trifluoromethyl)benzoyl)glycyl}aminomethyl]piperidine]

same assay, conditions: Method 1, at 100 μM

inhibition at 100 µM [%]	Structure (SMILES)
> 80	Cc1cccc(C(=O)NCC(=O)NC2CCCN(Cc3ccc(Cl)cc3)C2)c1 (stereo not drawn) [Compound No. 355, 1-(4-Chlorobenzyl)-3-[{N-(3-methylbenzoyl)glycyl}amino]piperidine]
